Values joined by “and” are separate entries in the source; they are usually repeats but may differ in a detail not shown here. Identical values can stand only once.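 Each compound was tested at five concentrations against cells in 96-well plates for 48 hours. At the GI50, growth is halved. TGI: total growth inhibition.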
Key:
Experiment in all cases: inhibition of tumour cell growth, NCI panel, 48 h
SK-MEL-2 melanoma = system: SK-MEL-2 melanoma
TK-10 renal = system: TK-10 renal
SNB-75 CNS = system: SNB-75 CNS
IGROV1 ovarian = system: IGROV1 ovarian
NCI-H23 lung = system: NCI-H23 lung
HCT-15 colon = system: HCT-15 colon
HS 578T breast = system: HS 578T breast
MCF7 breast = system: MCF7 breast
OVCAR-3 ovarian = system: OVCAR-3 ovarian
T-47D breast = system: T-47D breast

Structure (SMILES): COc1cc2c3c(n(C)c(=O)c2cc1OC)-c1cc2c(cc1/C3=C\CCCBr)OCO2
- GI50 (SK-MEL-2 melanoma): 21.3 µM
- TGI (SK-MEL-2 melanoma): 69.4 µM
- GI50 (TK-10 renal): 15.2 µM
- TGI (TK-10 renal): > 53.4 µM
- GI50 (SNB-75 CNS): 0.398 µM
- TGI (SNB-75 CNS): 12.8 µM
- GI50 (IGROV1 ovarian): 28.5 µM
- TGI (IGROV1 ovarian): > 100 µM
- GI50 (NCI-H23 lung): 19.6 µM
- TGI (NCI-H23 lung): 49.6 µM
- GI50 (HCT-15 colon): 34.8 µM
- TGI (HCT-15 colon): > 86.8 µM
- GI50 (HS 578T breast): 14.4 µM
- TGI (HS 578T breast): > 57.4 µM
- GI50 (MCF7 breast): 16.2 µM
- TGI (MCF7 breast): > 64.8 µM
- GI50 (OVCAR-3 ovarian): > 92.2 µM
- TGI (OVCAR-3 ovarian): > 100 µM
- GI50 (T-47D breast): > 91.3 µM
- TGI (T-47D breast): > 100 µM

Structure (SMILES): CC[C@H](C)n1cc(C)c2c(C(=O)NCc3c(C)cc(C)[nH]c3=O)cc(-c3ccc(N4CCNCC4)nc3)cc21
- GI50 (SK-MEL-2 melanoma): 17.5 µM and 15.4 µM
- TGI (SK-MEL-2 melanoma): 32.9 µM and 29.9 µM
- GI50 (TK-10 renal): 15.4 µM
- TGI (TK-10 renal): 29.7 µM
- GI50 (SNB-75 CNS): 6.12 µM and 3.63 µM
- TGI (SNB-75 CNS): 19.8 µM and 17.6 µM
- GI50 (IGROV1 ovarian): 12.9 µM and 16.4 µM
- TGI (IGROV1 ovarian): 27.4 µM and 33.2 µM
- GI50 (NCI-H23 lung): 18 µM and 17.6 µM
- TGI (NCI-H23 lung): 34.3 µM and 34 µM
- GI50 (HCT-15 colon): 15.9 µM and 12.6 µM
- TGI (HCT-15 colon): 30.7 µM and 26.5 µM
- GI50 (HS 578T breast): 13.6 µM and 13.2 µM
- TGI (HS 578T breast): 30.9 µM and 33.1 µM
- GI50 (MCF7 breast): 10.4 µM and 6.88 µM
- TGI (MCF7 breast): 24.9 µM and 21.8 µM
- GI50 (OVCAR-3 ovarian): 14.2 µM
- TGI (OVCAR-3 ovarian): 27.4 µM and 28.2 µM
- GI50 (T-47D breast): 16.6 µM and 11.4 µM
- TGI (T-47D breast): 36.3 µM and 28.4 µM

Structure (SMILES): O=C1/C(=C/c2ccccc2)CCC/C1=C\c1ccccc1
- GI50 (SK-MEL-2 melanoma): 6.19 µM and 22.7 µM
- TGI (SK-MEL-2 melanoma): 13.9 µM and 35.5 µM and 49.9 µM
- GI50 (TK-10 renal): 6.12 µM
- TGI (TK-10 renal): 11.9 µM and 33.2 µM and 40 µM
- GI50 (SNB-75 CNS): 6.22 µM
- TGI (SNB-75 CNS): 13.2 µM and 51.2 µM and 52.1 µM
- GI50 (IGROV1 ovarian): 8.37 µM and 14.6 µM
- TGI (IGROV1 ovarian): 14.1 µM and 29.4 µM and > 100 µM
- GI50 (NCI-H23 lung): 6.88 µM
- TGI (NCI-H23 lung): 12.3 µM and 21.9 µM and 36.4 µM
- GI50 (HCT-15 colon): 5.91 µM and 6.43 µM
- TGI (HCT-15 colon): 11.9 µM and 31.7 µM and 43.8 µM
- GI50 (HS 578T breast): 43.2 µM
- TGI (HS 578T breast): 28.1 µM and > 100 µM
- GI50 (MCF7 breast): 3.46 µM
- TGI (MCF7 breast): 12.4 µM and 21 µM
- GI50 (OVCAR-3 ovarian): 6.25 µM and 4.04 µM
- TGI (OVCAR-3 ovarian): 11.3 µM and 24 µM and 13 µM
- GI50 (T-47D breast): 15.1 µM
- TGI (T-47D breast): 11.6 µM and 38.6 µM

Structure (SMILES): CCOC(=O)C1=C(C)NC(=O)NC1c1coc2cc(C)cc(C)c2c1=O (stereo not given)
- TGI (SK-MEL-2 melanoma): 99.5 µM
- TGI (TK-10 renal): > 100 µM
- TGI (SNB-75 CNS): > 100 µM
- TGI (IGROV1 ovarian): > 100 µM
- TGI (NCI-H23 lung): > 100 µM
- TGI (HCT-15 colon): > 100 µM
- TGI (HS 578T breast): > 100 µM
- TGI (MCF7 breast): > 100 µM
- TGI (OVCAR-3 ovarian): > 70.5 µM
- TGI (T-47D breast): > 100 µM

Structure (SMILES): CC1(C)C(=S)C(C)(C)C1=S
- TGI (SK-MEL-2 melanoma): > 100 µM
- TGI (TK-10 renal): > 100 µM
- TGI (SNB-75 CNS): > 100 µM
- TGI (IGROV1 ovarian): > 100 µM
- TGI (NCI-H23 lung): > 100 µM
- TGI (HCT-15 colon): > 100 µM
- TGI (HS 578T breast): > 100 µM
- TGI (MCF7 breast): > 100 µM
- TGI (OVCAR-3 ovarian): > 100 µM
- TGI (T-47D breast): > 100 µM

From PubChem BioAssay (NCI)
